The source of these data is patent US20230058171A1, “NEW ORAL PHARMACEUTICAL COMPOSITION FOR CANCER THERAPY” (BOEHRINGER INGELHEIM INTERNATIONAL GMBH, priority 2021, published 2023).

SMILES strings stand for the structures.

The nature of this series: Human therapeutic dose prediction. On the procedure:
Preliminary pharmacokinetic (PK) data were used as supportive information for the dose decision. The human therapeutic dose was predicted based on a minimum effective AUC0-168 of 30,700 nM*h (QW), which was determined in a mouse SJSA-1 xenograft experiment. For this, the difference in plasma protein binding between human and mouse was taken into account, which translated to an effective AUC0-168 of 11,350 nM*h for QW dosing in humans. The human therapeutic dose was predicted to be 64 mg (free acid) with QW dosing.

The term Cmax denotes the maximum level reached in the sampled fluid or tissue.

As to `Cc1c(C(=O)O)ccc2c3n(nc12)[C@@H]1[C@H](C3)N(CC2CC2)[C@@]2(C(=O)Nc3cc(Cl)ccc32)[C@H]1c1cccc(Cl)c1F` [MDM2-antagonist of formula I, (2′S,3′S,3a'S,10a'S)-6-chloro-3′-(3-chloro-2-fluorophenyl)-1′-(cyclopropylmethyl)-6′-methyl-2-oxo-1,2,3′,3a′,10′,10a′-hexahydro-1′H-spiro[indole-3,2′-pyrrolo[2′,3′:4,5]pyrrolo[1,2-b]indazole]-7′-carboxylic acid], where the note is “at predicted human therapeutic dose, QW”, the peak concentration (Cmax) is 680 nM. In addition, for the setting “free acid, QW dosing”, the “predicted human therapeutic dose” value was 64 mg. In addition, the AUC(0-t) (oral, 64 mg, QW dosing in humans, corrected for plasma protein binding human vs mouse, read-out: effective AUC0-168) is 11.3 µM·h.
